The source of these data is US10669242B2 (priority 2016, dated 2020).

Usually IC50 stands for the concentration that gives 50% inhibition.

In this test the target is T1, recombinant glucosyltransferase domain of C. difficile Toxin B/TcdB (Clostridioides difficile, UniProt P18177).
T1 construct: 6-His (C); purchased R&D Systems 6246-GT
T1 sequence (P18177 1-543): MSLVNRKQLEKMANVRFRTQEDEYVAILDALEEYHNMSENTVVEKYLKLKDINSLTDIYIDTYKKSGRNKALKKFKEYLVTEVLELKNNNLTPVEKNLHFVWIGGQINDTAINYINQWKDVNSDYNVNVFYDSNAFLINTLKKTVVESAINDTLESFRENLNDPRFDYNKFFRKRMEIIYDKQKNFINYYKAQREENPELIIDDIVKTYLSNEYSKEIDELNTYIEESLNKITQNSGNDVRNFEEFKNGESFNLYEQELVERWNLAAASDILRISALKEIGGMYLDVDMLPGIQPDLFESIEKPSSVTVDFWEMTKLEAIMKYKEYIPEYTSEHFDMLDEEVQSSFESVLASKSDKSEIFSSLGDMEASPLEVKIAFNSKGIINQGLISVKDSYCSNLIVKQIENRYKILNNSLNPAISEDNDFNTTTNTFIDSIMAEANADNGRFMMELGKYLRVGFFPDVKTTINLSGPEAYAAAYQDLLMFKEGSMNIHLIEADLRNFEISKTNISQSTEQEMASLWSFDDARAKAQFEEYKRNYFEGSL
The test can be described thus: biochemical.
Turning to `O=C(NS(=O)(=O)c1ccc(Cl)cc1)c1ccc(CN2C(=O)c3ccc(Cl)cc3NC(=O)[C@H]2Cc2cccnc2)cc1` [Example 15c, (R)-4-((8-chloro-2,5-dioxo-3-(pyridin-3-ylmethyl)-2,3-dihydro-1H-benzo[e][1,4]diazepin-4(5H)-yl)methyl)-N-((4-chlorophenyl)sulfonyl)benzamide], the IC50 lay within 1000 to 10000 nM.

Take `O=C(O)c1ccc(CN2C(=O)c3ccc(Cl)cc3NC(=O)[C@H]2Cc2ccccn2)cc1F` [Example 1i]: the IC50 lay in the range of 100 to 999 nM.

In the case of `O=C(CS)Nc1ccc(CN2C(=O)c3ccc(Cl)cc3NC(=O)[C@H]2Cc2ccccn2)cc1` [Example 29a, (R)—N-(4-((8-Chloro-2,5-dioxo-3-(pyridin-2-ylmethyl)-2,3-dihydro-1H-benzo[e][1,4]diazepin-4(5H)-yl)methyl)phenyl)-2-mercaptoacetamide], the IC50 is 1000 to 10000 nM.

For the compound `O=C(c1ccc(CN2C(=O)c3ccc(Cl)cc3NC(=O)[C@H]2Cc2ccccn2)cc1)c1cccc2cccnc12` [Example 31b], the IC50 fell in the range of 1000 to 10000 nM.

In the case of `CC(C)C[C@@H]1C(=O)Nc2cc(Cl)ccc2C(=O)N1Cc1ccc(C(=O)Nc2ccccn2)cc1` [Example 35k], the IC50 was 10000 to 35000 nM.

On to `O=C(N[C@H]1CC[C@H](CN2C(=O)c3ccc(Cl)cc3NC(=O)[C@H]2Cc2ccccn2)CC1)c1ccccn1` [Example 26j], for which the IC50 fell in the range of 100 to 999 nM.

Take `Cc1ccc(NC(=O)c2ccc(CN3C(=O)c4ccc(N)cc4NC(=O)[C@H]3C)cc2)nc1` [Example 16a, (R)-4-((8-Amino-3-methyl-2,5-dioxo-2,3-dihydro-1H-benzo[e][1,4]diazepin-4(5H)-yl)methyl)-N-(5-methylpyridin-2-yl)benzamide]: the IC50 lay within 1000 to 10000 nM.

Take `COc1ccc(NC(=O)c2ccc(S(=O)(=O)N3Cc4ccc(Cl)cc4NC(=O)[C@@H]3Cc3ccccn3)cc2)nc1` [Example 19d, (S)-4-((8-chloro-2-oxo-3-(pyridin-2-ylmethyl)-2,3-dihydro-1H-benzo[e][1,4]diazepin-4(5H)-yl)sulfonyl)-N-(5-methoxypyridin-2-yl)benzamide]: the IC50 lay within 100 to 999 nM.

For `O=C(O)c1ccc(CN2C(=O)c3ccc(Cl)cc3NC(=O)[C@H]2Cc2ccccn2)cc1-c1ccc(F)c(Cl)c1` [Example 8l, (R)-3′-chloro-5-((8-chloro-2,5-dioxo-3-(pyridin-2-ylmethyl)-2,3-dihydro-1H-benzo[e][1,4]diazepin-4(5H)-yl)methyl)-4′-fluoro-[1,1′-biphenyl]-2-carboxylic acid], the IC50 was 100 to 999 nM.

Regarding `Cc1ccc2c(c1)NC(=O)[C@@H](Cc1ccc(Cl)c(Cl)c1)N(Cc1ccc(C(=O)Nc3ccccn3)cc1)C2=O` [Example 4ac, (R)-4-((3-(3,4-dichlorobenzyl)-8-methyl-2,5-dioxo-2,3-dihydro-1H-benzo[e][1,4]diazepin-4(5H)-yl)methyl)-N-(pyridin-2-yl)benzamide], the IC50 fell in the range of 100 to 999 nM.

On to `Cc1cccc(C(=O)c2ccc(CN3C(=O)c4ccc(Cl)cc4NC(=O)[C@H]3Cc3ccccn3)cc2)n1` [Example 11e, (R)-8-chloro-4-(4-(6-methylpicolimoyl)benzyl)-3-(pyridin-2-ylmethyl)-3,4-dihydro-1H-benzo[e][1,4]diazepine-2,5-dione], for which the IC50 fell in the range of 100 to 999 nM.

Regarding `Cc1ccccc1C[C@@H]1C(=O)Nc2cc(Cl)ccc2C(=O)N1Cc1ccc(C(=O)Nc2ccccn2)cc1` [Example 4ai, (R)-4-((8-chloro-3-(2-methylbenzyl)-2,5-dioxo-2,3-dihydro-1H-benzo[e][1,4]diazepin-4(5H)-yl)methyl)-N-(pyridin-2-yl)benzamide], the IC50 is less than 100 nM.

As for `Cc1ccc(C(=O)Nc2c(C)cc(CN3C(=O)c4ccc(Cl)cc4NC(=O)[C@H]3Cc3ccccn3)cc2C)nc1` [Example 26l], the IC50 lay in the range of 100 to 999 nM.

Consider `COCCC(=O)Nc1ccc2c(c1)NC(=O)[C@@H](C)N(Cc1ccc(C(=O)Nc3ccc(C)cn3)cc1)C2=O` [Example 18a, (R)-4-((8-(3-Methoxypropanamido)-3-methyl-2,5-dioxo-2,3-dihydro-1H-benzo[e][1,4]diazepin-4(5H)-yl)methyl)-N-(5-methylpyridin-2-yl)benzamide], for which the IC50 was in the range of 1000 to 10000 nM.
